Test results taken from ChEMBL document CHEMBL4616625, “The Medicinal Chemistry in the Era of Machines and Automation: Recent Advances in Continuous Flow Technology” (J Med Chem, 2020).

Experiments:
[1] = target: T1, Alpha-1B adrenergic receptor (Homo sapiens, UniProt P35368); assay: Inhibition of alpha1B adrenergic receptor (unknown origin)
T1 sequence (P35368 whole entry): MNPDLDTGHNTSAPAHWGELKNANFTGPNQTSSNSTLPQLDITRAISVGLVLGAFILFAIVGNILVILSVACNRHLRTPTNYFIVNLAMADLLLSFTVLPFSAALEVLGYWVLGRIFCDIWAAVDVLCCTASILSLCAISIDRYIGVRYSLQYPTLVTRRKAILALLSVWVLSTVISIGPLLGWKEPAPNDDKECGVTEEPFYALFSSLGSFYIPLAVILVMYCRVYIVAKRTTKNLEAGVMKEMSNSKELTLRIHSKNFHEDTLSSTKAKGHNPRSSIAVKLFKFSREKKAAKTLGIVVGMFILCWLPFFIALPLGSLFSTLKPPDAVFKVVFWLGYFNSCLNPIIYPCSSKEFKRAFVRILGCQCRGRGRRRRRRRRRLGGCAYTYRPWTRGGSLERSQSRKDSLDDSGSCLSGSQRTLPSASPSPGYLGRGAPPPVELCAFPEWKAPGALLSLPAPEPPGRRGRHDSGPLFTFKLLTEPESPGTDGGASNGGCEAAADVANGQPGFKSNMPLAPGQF

[2] = target: Albumin (Homo sapiens, UniProt P02768); assay: Binding affinity to albumin (unknown origin); format: ADME
Chain of Albumin (P02768 whole entry): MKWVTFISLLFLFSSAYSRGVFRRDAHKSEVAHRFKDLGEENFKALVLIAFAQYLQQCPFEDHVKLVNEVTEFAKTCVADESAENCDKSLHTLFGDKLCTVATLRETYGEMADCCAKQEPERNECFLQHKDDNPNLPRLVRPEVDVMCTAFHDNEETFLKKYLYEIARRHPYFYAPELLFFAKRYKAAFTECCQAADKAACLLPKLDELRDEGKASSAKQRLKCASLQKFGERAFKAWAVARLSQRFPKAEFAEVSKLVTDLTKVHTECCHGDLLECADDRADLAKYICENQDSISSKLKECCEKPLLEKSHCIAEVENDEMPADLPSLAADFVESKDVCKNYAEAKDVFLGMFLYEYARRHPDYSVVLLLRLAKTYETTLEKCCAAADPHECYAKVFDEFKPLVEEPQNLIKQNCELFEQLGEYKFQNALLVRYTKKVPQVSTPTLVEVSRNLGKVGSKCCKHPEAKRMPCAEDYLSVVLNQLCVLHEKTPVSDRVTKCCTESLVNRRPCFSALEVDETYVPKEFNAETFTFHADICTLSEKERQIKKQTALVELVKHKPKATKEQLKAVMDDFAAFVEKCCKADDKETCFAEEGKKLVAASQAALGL

Row | Compound | Ki [1] | Kd [2]
1 | COc1ccc(-c2nc3ccccn3c2NCCN2CCOCC2)c(OC)c1 | 2 µM | 
2 | CCCN(CCC)C(=O)Cc1c(-c2ccc(Cl)cc2)nc2ccc(Cl)cn12 [ALPIDEM] |  | 2 µM
3 | Cc1ccc(-c2nc3ccc(C)cn3c2CC(=O)N(C)C)cc1 [ZOLPIDEM] |  | 63 µM
